From US20190202823A1, “N-SULFONYLATED PYRAZOLO[3,4-b]PYRIDIN-6-CARBOXAMIDES AND METHOD OF USE” (AbbVie S.à.r.l., priority 2015, published 2019) come the findings set out here.

Molecules are shown by their SMILES.

Assay [1] concerns the target T1, ΔF508-CFTR (Homo sapiens, UniProt P13569, DEL508-508).
T1 construct: host or cells: CFBE41o- cells, doxycycline-inducible expression
Briefly: CFTR cell surface levels using HRP-tagged ΔF508-CFTR expressing CFBE cells, in the presence of a co-corrector. It is filed as cell-based. The note with it: HRP-tagged ΔF508-CFTR CFBE41o- cells, with 3 μM co-corrector; for % Activation: positive control 3 μM co-corrector. From the text:
(§1) Measuring CFTR Cell Surface Levels Using HRP-Tagged ΔF508-CFTR Expressing CFBE Cells
(§2) The HRP-tagged ΔF508-CFTR cell assay measures the expression of CFTR-ΔF508 at the plasma membrane. CFTR-ΔF508 has a folding defect leading to absence of protein at the plasma membrane. This assay is used to evaluate the capacity of compounds to increase the expression of CFTR-ΔF508 at the plasma membrane. […] When HRP-tagged ΔF508-CFTR is present at the plasma membrane, the HRP enzyme activity can be measured. The amount of CFTR-ΔF508 that can be rescued to the plasma membrane is correlated with the amount of functional enzyme that can be measured.
(§3) There are several ways to measure the capacity of compounds to rescue CFTR-ΔF508 to the plasma membrane; either compounds are evaluated on their own and the impact on plasma membrane levels is measured or compounds are evaluated in combination with a co-corrector, i.e. a compound that rescues CFTR-ΔF508 to the plasma membrane but rescue can be enhanced by addition of compounds due to a complementary mode of action.
Activity of Compounds in Combination with Co-Corrector:
On day four, 10 μL of test compounds diluted in PBS (phosphate buffered saline) were added to the plates at a final DMSO concentration of 0.1%. In order to measure compound synergy with a co-corrector, 3 μM co-corrector (3-[(2R,4R)-4-({[1-(2,2-difluoro-1,3-benzodioxol-5-yl)cyclopropyl]carbonyl}amino)-7-methoxy-3,4-dihydro-2H-chromen-2-yl]benzoic acid) was added along with test compounds. All compound plates contained negative controls (DMSO) and positive controls (3 μM co-corrector). Cell plates were incubated at 33° C., 5% CO2 for 20 hours. […] After incubation for 15 minutes in the dark, the chemiluminescence was measured using a plate reader (EnVision®, Perkin Elmer). Raw data were normalized to percentage activity values using the equation: 100×(Sample−Negative control)/(Positive control−Negative Control).

The target of assay [2] is T1, ΔF508-CFTR. Briefly: CFTR cell surface levels using HRP-tagged ΔF508-CFTR expressing CFBE cells, intrinsic corrector capacity. The format is cell-based. Also noted: % Activation: concentration or dose not given beside the values. Particulars: HRP-tagged ΔF508-CFTR expressing CFBE41o- cells; compounds alone (intrinsic corrector capacity); 20 hours at 33° C.
Source text: as §1, §2, §3
Activity of Compounds for their Intrinsic Corrector Capacity:
On day four, L test compounds diluted in PBS were added to the plates at a final DMSO concentration of 0.1%. All compound plates contained negative controls (DMSO) and positive controls ([…] corrector, 3-[(2R,4R)-4-({[1-(2,2-difluoro-1,3-benzodioxol-5-yl)cyclopropyl]carbonyl}amino)-7-methoxy-3,4-dihydro-2H-chromen-2-yl]benzoic acid). Cell plates were incubated at 33° C., 5% CO2 for 20 hours. […] After incubation for 15 minutes in the dark, chemiluminescence was measured using a plate reader (EnVision®, Perkin Elmer). Raw data were normalized to percentage activity values using the equation: 100×(Sample−Negative control)/(Positive control−Negative Control).

T1 sequence (P13569 with tags, fused parts or gaps DEL508-508): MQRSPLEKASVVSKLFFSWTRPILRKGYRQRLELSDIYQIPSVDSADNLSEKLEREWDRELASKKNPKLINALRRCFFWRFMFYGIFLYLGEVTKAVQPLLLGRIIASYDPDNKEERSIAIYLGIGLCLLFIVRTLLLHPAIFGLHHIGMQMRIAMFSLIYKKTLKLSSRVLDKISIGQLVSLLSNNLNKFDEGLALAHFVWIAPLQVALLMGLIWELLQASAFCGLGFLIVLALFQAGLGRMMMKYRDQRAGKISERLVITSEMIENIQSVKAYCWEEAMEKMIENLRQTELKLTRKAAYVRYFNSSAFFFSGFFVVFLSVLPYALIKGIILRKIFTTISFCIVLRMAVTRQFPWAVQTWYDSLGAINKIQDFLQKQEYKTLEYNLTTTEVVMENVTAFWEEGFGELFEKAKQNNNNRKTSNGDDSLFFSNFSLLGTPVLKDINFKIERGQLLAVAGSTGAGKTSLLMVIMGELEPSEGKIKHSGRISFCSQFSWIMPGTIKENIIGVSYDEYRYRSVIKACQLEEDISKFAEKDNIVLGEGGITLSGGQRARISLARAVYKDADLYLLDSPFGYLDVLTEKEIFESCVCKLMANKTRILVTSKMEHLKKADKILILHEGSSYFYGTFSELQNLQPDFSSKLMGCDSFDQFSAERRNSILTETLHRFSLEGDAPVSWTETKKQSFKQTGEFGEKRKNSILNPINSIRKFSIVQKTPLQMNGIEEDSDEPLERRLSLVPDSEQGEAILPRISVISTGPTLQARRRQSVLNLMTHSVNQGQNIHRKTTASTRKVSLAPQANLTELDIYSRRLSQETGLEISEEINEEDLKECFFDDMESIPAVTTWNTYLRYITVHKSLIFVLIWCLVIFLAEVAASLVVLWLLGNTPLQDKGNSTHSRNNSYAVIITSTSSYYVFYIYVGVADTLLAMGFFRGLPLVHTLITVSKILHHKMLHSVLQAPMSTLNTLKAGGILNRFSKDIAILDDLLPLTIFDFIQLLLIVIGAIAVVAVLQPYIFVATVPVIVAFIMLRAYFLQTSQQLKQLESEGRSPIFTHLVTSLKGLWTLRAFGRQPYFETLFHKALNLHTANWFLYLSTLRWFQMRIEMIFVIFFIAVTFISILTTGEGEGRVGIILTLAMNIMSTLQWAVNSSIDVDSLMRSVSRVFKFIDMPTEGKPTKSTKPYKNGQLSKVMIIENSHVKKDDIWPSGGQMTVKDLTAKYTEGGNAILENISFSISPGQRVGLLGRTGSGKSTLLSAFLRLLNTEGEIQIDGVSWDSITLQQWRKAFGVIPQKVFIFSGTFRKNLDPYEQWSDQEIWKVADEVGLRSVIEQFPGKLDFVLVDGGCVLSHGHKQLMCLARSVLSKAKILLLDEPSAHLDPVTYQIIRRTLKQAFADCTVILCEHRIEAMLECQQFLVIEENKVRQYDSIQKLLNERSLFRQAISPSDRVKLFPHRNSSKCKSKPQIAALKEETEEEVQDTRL

For orientation: EC50 means the concentration at which the effect is half-maximal. With `CS(=O)(=O)NC(=O)c1cc(OCCCN2CCCCC2)c2c(C3CCC3)nn(-c3ccccc3)c2n1` [compound 314], the EC50 on ΔF508-CFTR [1] came to 692 nM.

With `CN(C)S(=O)(=O)NC(=O)c1cc(N2CCC(N3CCC(C#N)C3)CC2)c2c(C3CCC3)nn(-c3ccc(F)cc3)c2n1` (centres unmarked) [compound 561], the EC50 at ΔF508-CFTR [1] came out at 42 nM. On the same count and under the same terms, in the case of `CC(c1ccc(-c2cc(C(=O)NS(=O)(=O)N(C)C)nc3c2c(C2CCC2)nn3C2CCCCC2)cc1)N1CCOCC1` (centres unmarked) [compound 543] it was 39.2 nM.

In the case of `COCC1CCN(Cc2cc(C(=O)NS(=O)(=O)N(C)C)nc3c2c(C2CCC2)nn3-c2ccc(F)cc2)CC1` [compound 521], on ΔF508-CFTR [2], the EC50 is 10000 nM. Regarding `CN(C)S(=O)(=O)NC(=O)c1cc(C2CCN(CCC(F)(F)F)CC2)c2c(C3CCC3)nn(-c3ccc(F)cc3)c2n1` [compound 604], the “% Activation” value at ΔF508-CFTR [1] is recorded as 269.3%. Take `CC(C)Oc1nn(C2CCCCC2)c2nc(C(=O)NS(C)(=O)=O)cc(-c3ccc(C4(C#N)CCN(C)CC4)cc3)c12` [compound 639]: on ΔF508-CFTR [2], the “% Activation” value is 238.35% and the EC50 was determined as 132 nM. In addition, on ΔF508-CFTR [1], the EC50 turned out to be 74.4 nM and the “% Activation” value is 464.55%.

Consider `Cc1nn(C2CCCCC2)c2nc(C(=O)NS(C)(=O)=O)cc(-c3ccc(N4CCOCC4)nc3)c12` [compound 47], for which the EC50 at ΔF508-CFTR [1] was found to be 1600 nM.

`CN(C)S(=O)(=O)NC(=O)c1cc(N2CCC(CN3CCOCC3)CC2)c2c(C3CCC3)nn(-c3ccc(F)cc3)c2n1` [compound 409]: the “% Activation” value on ΔF508-CFTR [2] came to 272.74%. With `CN(C)S(=O)(=O)NC(=O)c1cc(C2CCN(CC3CC3)CC2)c2c(C3CCC3)nn(-c3ccc(F)cc3)c2n1` [compound 613], the EC50 at ΔF508-CFTR [2] turned out to be 10000 nM. On the same count and under the same terms, with `CS(=O)(=O)NC(=O)c1cc(N2CC3(CCOCC3)C2)c2c(C3CCC3)nn(-c3ccccc3)c2n1` [compound 204] the figure was 978 nM; with `CC(C)c1nn(C2CCCCC2)c2nc(C(=O)NS(C)(=O)=O)cc(-c3ccc(N4CCC(F)(F)C4)nc3)c12` [compound 64], 835 nM.
